The structures appear in SMILES notation.

The nature of data set [1]: log P by HPLC on reversed-phase C18, LC-MS, pH 2.7, formic acid (HCOOH). The data set is classed as physicochemical. Conditions: reversed-phase C18 HPLC column; HPLC C18, pH 2.7, 0.1% aqueous formic acid/acetonitrile. As for the experimental part: (§1) The log P values reported in the table above and in the preparation examples were determined in accordance with EEC Directive 79/831 Annex V.A8 by HPLC (High Performance Liquid Chromatography) on reversed-phase columns (C18), with the following methods: ^[b] The determination is made by LC-MS in the acid range at pH 2.7 with 0.1% aqueous formic acid and acetonitrile (containing 0.1% formic acid) as eluents; linear gradient from 10% acetonitrile to 95% acetonitrile. Calibration took place with unbranched alkan-2-ones (having 3 to 16 carbon atoms) of known log P values (log P values determined from the retention times by linear interpolation between two successive alkanones).

A short description of data set [2]: log P by HPLC on reversed-phase C18, pH 2.3, phosphoric acid (H3PO4). The class given is physicochemical. Conditions: reversed-phase C18 HPLC column; HPLC C18, pH 2.3, 0.1% aqueous phosphoric acid/acetonitrile. As for the experimental part: as §1, with “^[a]” for “^[b]”, “made” for “made by LC-MS”, “2.3” for “2.7”, “phosphoric” for “formic”, “acetonitrile” for “acetonitrile (containing 0.1% formic acid)”

Another data set concerns Boophilus microplus. Put plainly: Boophilus microplus test (BOOPMI injection). Conditions: Rhipicephalus microplus, 168 h; 20 μg/animal, injection into abdomen, after 7 days; read-out: activity (no fertile eggs laid). The data set is classed as in vivo. As for the experimental part: Solvent: Dimethyl Sulphoxide An appropriate preparation of active compound is prepared by mixing 10 mg of active compound with 0.5 ml of solvent and diluting the concentrate with solvent to the desired concentration. The solution of active compound is injected into the abdomen (Boophilus microplus) and the animals are transferred into dishes and kept in a controlled atmosphere. The activity is assessed on the basis of deposition of fertile eggs. After 7 days, the effect in % is determined. Here, 100% means that none of the ticks has laid fertile eggs.

Data set [3] deals with greenhouse red spidermite (Tetranychus urticae). Put plainly: Tetranychus test; OP resistant (TETRUR spray treatment), Example 3. The data set is classed as in vivo. Conditions: foliar, 144 h, spray on bean leaf discs, after 6 days, read-out: effect (mites killed). As for the experimental part:
(§2) Solvents: 78.0 parts by weight of acetone • • 1.5 parts by weight of dimethylformamide Emulsifier: 0.5 part by weight of alkylaryl polyglycol ether An appropriate preparation of active compound is prepared by mixing 1 part by weight of active compound with the stated amounts of solvent and emulsifier and diluting the concentrate with emulsifier-containing water to the desired concentration. Leaf discs of bean (Phaseolus vulgaris) infested by all stages of the greenhouse red spidermite (Tetranychus urticae) are sprayed with a preparation of active compound at the desired concentration. After 6 days, the effect in % is determined. Here, 100% means that all of the mites have been killed; 0% means that no mites have been killed.

The next data set relates to Meloidogyne incognita. Put plainly: Meloidogyne incognita test (MELGIN). The data set is classed as in vivo. Conditions: 20 ppm, lettuce in sand, after 14 days. As for the experimental part:
Solvents: 78.0 parts by weight of acetone • • 1.5 parts by weight of dimethylformamide Emulsifier: 0.5 part by weight of alkylaryl polyglycol ether An appropriate preparation of active compound is prepared by mixing 1 part by weight of active compound with the stated amounts of solvent and emulsifier and diluting the concentrate with water to the desired concentration. Pots are filled with sand, solution of active compound, meloidogyne incognita egg/larvae suspension, and lettuce seeds. The lettuce seeds germinate and the plants develop. On the roots, the galls develop. After 14 days, the nematicidal effect is determined from the gall formation, in %. Here, 100% means that no galls were found; 0% means that the number of galls on the treated plants corresponds to that for the untreated control.

The subject of data set [4] is greenhouse red spidermite (Tetranychus urticae). Nature of the data set: Tetranychus test; OP resistant (TETRUR spray treatment), Example 5, comparison with prior art. The class given is in vivo. Conditions: 20 g/ha, 6d. As for the experimental part:
as §2, with “the desired time,” for “6 days,”

For data set [5], the system named is larvae of the mustard beetle (Phaedon cochleariae). Nature of the data set: Phaedon test (PHAECO spray treatment). The data set is classed as in vivo. Conditions: foliar, 168 h, spray on Chinese cabbage leaf discs, after 7 days, read-out: effect (beetle larvae killed). As for the experimental part:
Solvents: 78.0 parts by weight of acetone • • 1.5 parts by weight of dimethylformamide Emulsifier: 0.5 part by weight of alkylaryl polyglycol ether An appropriate preparation of active compound is prepared by mixing 1 part by weight of active compound with the stated amounts of solvent and emulsifier and diluting the concentrate with emulsifier-containing water to the desired concentration. Leaf discs of Chinese cabbage (Brassica pekinensis) are sprayed with a preparation of active compound at the desired concentration and, after they have dried, are populated with larvae of the mustard beetle (Phaedon cochleariae). After 7 days, the effect in % is determined. Here, 100% means that all of the beetle larvae have been killed; 0% means that no beetle larvae have been killed.

Data set [6] in a line: log P by HPLC on reversed-phase C18, eluent variant not stated. Conditions: reversed-phase C18 HPLC column. The class given is physicochemical. As for the experimental part: The log P values reported in the table above and in the preparation examples were determined in accordance with EEC Directive 79/831 Annex V.A8 by HPLC (High Performance Liquid Chromatography) on reversed-phase columns (C18), with the following methods: Calibration took place with unbranched alkan-2-ones (having 3 to 16 carbon atoms) of known log P values (log P values determined from the retention times by linear interpolation between two successive alkanones).

For the compound `Cc1cc(C)c(-n2cnc(C(F)F)n2)cc1SCC(F)F` [I-A-1], the chromatographic logP (as a rule, a lipophilicity value derived from retention on a column) stood at 3.02 in data set [1] and 3.06 in data set [2]. The pest or weed control at 0.02 mg in the data set on Boophilus microplus stood at 100%. Also, the pest or weed control at 100 g/ha in data set [3] amounted to 100%.

`Cc1cc(C)c(-n2cnc(C(F)F)n2)cc1SCC(F)(F)F` [I-A-2, 3-(Difluoromethyl)-1-{2,4-dimethyl-5-[(2,2,2-trifluoroethyl)sulphanyl]phenyl}-1H-1,2,4-triazole] returned a chromatographic logP in data set [1] of 3.33. Further, the pest or weed control at 0.02 mg in the data set with Boophilus microplus stood at 100%. Also, the pest or weed control at 500 g/ha in data set [3] stood at 100%. Moreover, the “nematicidal effect (gall formation)” value in the data set with Meloidogyne incognita is 100%. Besides, in data set [4], the “% effect after application” value is given as 100 6d %.

`Cc1cc(C)c([S+]([O-])CC(F)(F)F)cc1-n1cnc(C(F)F)n1` (stereo not shown) [I-A-4, 3-(Difluoromethyl)-1-{2,4-dimethyl-5-[(2,2,2-trifluoroethyl)sulphinyl]phenyl}-1H-1,2,4-triazole]: the chromatographic logP in data set [1] was 2.19. For the same compound, the pest or weed control at 0.02 mg in the data set with Boophilus microplus is 100%. Moreover, the pest or weed control at 100 g/ha in data set [3] came to 100%. Besides, the “nematicidal effect (gall formation)” value in the data set with Meloidogyne incognita was 100%.

Compound `Cc1ccc(-n2cnc(C(F)F)n2)cc1SCC(F)(F)F` [I-A-5] had a chromatographic logP in data set [1] of 3.24. The pest or weed control at 0.02 mg in the data set with Boophilus microplus came out at 100%. For the same compound, the pest or weed control at 500 g/ha in data set [5] worked out at 100%. The pest or weed control at 100 g/ha in data set [3] came out at 100%.

The compound `FC(F)c1ncn(-c2ccc(Cl)c(SCC(F)(F)F)c2)n1` [I-A-9] gave a chromatographic logP in data set [1] of 3.28. For the same compound, the pest or weed control at 0.02 mg with Boophilus microplus was 100%. Besides, in data set [5], the pest or weed control at 500 g/ha was 100%. For the same compound, the pest or weed control at 100 g/ha in data set [3] was determined as 100%. The “nematicidal effect (gall formation)” value with Meloidogyne incognita was found to be 100%.

Consider `Cc1cc(C)c([S+]([O-])CC(F)(F)F)cc1-n1cnc(C(F)(F)C(F)(F)F)n1` (stereo not shown) [I-A-10], for which the chromatographic logP in data set [1] turned out to be 3.27. In addition, the pest or weed control at 0.02 mg with Boophilus microplus turned out to be 100%. Besides, the pest or weed control at 500 g/ha in data set [5] and in data set [3] was 100% in each case.

For the compound `Cc1cc(C)c([S+]([O-])CC(F)F)cc1-n1cnc(C(F)(F)C(F)(F)Cl)n1` (stereo not shown) [I-A-12], the chromatographic logP in data set [1] stood at 3.02. Besides, the pest or weed control at 0.02 mg with Boophilus microplus stood at 100%. In data set [5], the pest or weed control at 500 g/ha was determined as 100%. In addition, in data set [3], the pest or weed control at 100 g/ha was found to be 100%.

In data set [1], `Cc1cc(F)c(-n2cnc(C(F)F)n2)cc1[S+]([O-])CC(F)(F)F` (stereo not shown) [I-A-15] registered a chromatographic logP of 2.12. Also, the pest or weed control at 500 g/ha in data set [5] and in data set [3] was 100% each time. Moreover, the “nematicidal effect (gall formation)” value in the data set on Meloidogyne incognita was determined as 90%.

Compound `Cc1ccc(-n2cnc(C(F)F)n2)cc1[S+]([O-])CC(F)(F)F` (stereo not shown) [I-A-16] displayed a chromatographic logP in data set [1] of 2.1. The pest or weed control at 500 g/ha in data set [5] came out at 100%. The pest or weed control at 100 g/ha in data set [3] is 100%. Moreover, the “nematicidal effect (gall formation)” value with Meloidogyne incognita worked out at 100%.

As for `[O-][S+](CC(F)(F)F)c1cc(-n2cnc(C(F)F)n2)ccc1Cl` (stereo not shown) [I-A-27], the chromatographic logP in data set [1] was determined as 2.39. Further, the pest or weed control at 0.02 mg in the data set with Boophilus microplus stood at 100%. Also, the pest or weed control at 500 g/ha in data set [5] came out at 100%. The pest or weed control at 100 g/ha in data set [3] was 100%. The “nematicidal effect (gall formation)” value in the data set on Meloidogyne incognita is 100%.

With `Cc1cc(F)c(-n2cnc(C(F)F)n2)cc1SCC(F)(F)F` [I-A-30], the chromatographic logP in data set [1] stood at 3.28. The pest or weed control at 500 g/ha in data set [5] was found to be 100%. In data set [3], the pest or weed control at 100 g/ha worked out at 100%. Besides, the “nematicidal effect (gall formation)” value in the data set with Meloidogyne incognita was found to be 90%.

`Cc1cc(F)c(-n2cnc(C(F)F)n2)cc1SCC1CC1` [I-A-31] came in with a chromatographic logP in data set [1] of 3.81. The pest or weed control at 500 g/ha in data set [5] amounted to 100%. Besides, the pest or weed control at 100 g/ha in data set [3] is 100%.

Consider `Cc1ccc(NNC(=O)C(F)F)c(C)c1` [N′-(2,4-Dimethylphenyl)-2,2-difluoroacetohydrazide], for which the chromatographic logP in data set [6] was found to be 1.8.

Regarding `Cc1cc(C)c(-n2cnc(C(F)(F)F)n2)cc1SCC(F)(F)F` [VI-297, reference compound], the “% effect after application” value in data set [4] is given as 70 6d %.

The values are drawn from patent US8632767B2, “3-[1-(3-haloalkyl)triazolyl]phenyl sulphide derivatives as acaricides and insecticides” (Bayer Intellectual Property GmbH, priority 2009, dated 2014).
